Reference: patent publication US7205382B2, “Peptides, the production and use thereof for binding immunoglobulins” (Fresenius Medical Care Affina GmbH, priority 2000, dated 2007)
Bridge positions count the residues as written; N and C are the ends. Square brackets hold non-standard residues; d marks the D form. Ends that are not written are not given here. cellulose = not defined here; βAla = NCCC(=O)O

Assays:
Assay type in all cases: binding
Design in all cases: key: No binding of immunoglobulin for the defined peptide variant, detection negative: 0; Binding of immunoglobulin for the defined peptide variant, detection positive: +
[1] = test system: immunoglobulins in human plasma; test: Cellulose-immobilized 13-mer peptide variants incubated with human plasma, anti-human IgG-AP detection; conditions: human plasma as sample, diluted 1:10,000 in blocking buffer, 3 h room temperature
In short: (§1)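 SPOT-type 13-mer peptides on cellulose with a (βA)(βA) spacer, blocked in 5% saccharose/4% BSA in T-TBS pH 8.0. Incubated 3 h at RT with human IgG-Fc (1 μg/ml) or human serum/plasma (1:10,000), or with blocking buffer alone as the albumin specificity control. Bound IgG detected with AP-anti-human IgG (1.2 μg/ml) and NBT/BCIP colorimetric development at pH 9.5.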

serum albumin = test: Cellulose-immobilized 13-mer peptide variants incubated with serum albumin (negative control), anti-human IgG-AP detection; conditions: blocking buffer without addition, 3 h room temperature
In short: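 Peptides on cellulose via a (βA)(βA) spacer were blocked in T-TBS (pH 8.0) with 5% saccharose and 4% BSA, then exposed for 3 h at room temperature to IgG-Fc (1 μg/ml), serum diluted 1:10,000, or blocking buffer alone. Bound IgG was detected with AP-anti-human IgG (1.2 μg/ml) and NBT/BCIP colour development.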

human IgG-Fc = test: Cellulose-immobilized 13-mer peptide variants incubated with human IgG-Fc, anti-human IgG-AP detection; conditions: IgG-Fc 1 μg/ml in blocking buffer, 3 h room temperature
In short: as §1

Result for incubation with human plasma (immunoglobulin binding detection) [1] | Result for incubation with serum albumin (immunoglobulin binding detection) (serum albumin) | Result for incubation with human IgG-Fc (immunoglobulin binding detection) (human IgG-Fc) | Substance
0 | 0 | 0 | 10Y: cellulose-bound 13-mer variant DCAWHLGELYWCT-(βA)(βA) (DCAWHLGELYWCT-{βAla-βAla-cellulose}; disulfide 2-12 (inferred); reading uncertain; also: printed as DCAWHLGELYWCT-(βA)(βA))
0 | 0 | 0 | 08W: cellulose-bound 13-mer variant DCAWHLGWLVWCT-(βA)(βA) (DCAWHLGWLVWCT-{βAla-βAla-cellulose}; disulfide 2-12 (inferred); reading uncertain; also: printed as DCAWHLGWLVWCT-(βA)(βA))
0 | 0 | 0 | 03D: cellulose-bound 13-mer variant DCDWHLGELVWCT-(βA)(βA) (DCDWHLGELVWCT-{βAla-βAla-cellulose}; disulfide 2-12 (inferred); reading uncertain; also: printed as DCDWHLGELVWCT-(βA)(βA))
0 | 0 | 0 | 10Q: cellulose-bound 13-mer variant DCAWHLGELQWCT-(βA)(βA) (DCAWHLGELQWCT-{βAla-βAla-cellulose}; disulfide 2-12 (inferred); reading uncertain; also: printed as DCAWHLGELQWCT-(βA)(βA))
0 | 0 | 0 | 10G: cellulose-bound 13-mer variant DCAWHLGELGWCT-(βA)(βA) (DCAWHLGELGWCT-{βAla-βAla-cellulose}; disulfide 2-12 (inferred); reading uncertain; also: printed as DCAWHLGELGWCT-(βA)(βA))
0 | 0 | 0 | 07C: cellulose-bound 13-mer variant DCAWHLCELVWCT-(βA)(βA) (DCAWHLCELVWCT-{βAla-βAla-cellulose}; not fully specified (N-terminus); printed as DCAWHLCELVWCT-(βA)(βA); cysteine pairing not given here; reading uncertain)
0 | 0 | 0 | 03R: cellulose-bound 13-mer variant DCRWHLGELVWCT-(βA)(βA) (DCRWHLGELVWCT-{βAla-βAla-cellulose}; disulfide 2-12 (inferred); reading uncertain; also: printed as DCRWHLGELVWCT-(βA)(βA))
0 | 0 | 0 | 07P: cellulose-bound 13-mer variant DCAWHLPELVWCT-(βA)(βA) (DCAWHLPELVWCT-{βAla-βAla-cellulose}; disulfide 2-12 (inferred); not fully specified (N-terminus); printed as DCAWHLPELVWCT-(βA)(βA); reading uncertain)
0 | 0 | + | 03Q: cellulose-bound 13-mer variant DCQWHLGELVWCT-(βA)(βA) (DCQWHLGELVWCT-{βAla-βAla-cellulose}; disulfide 2-12 (inferred); reading uncertain; also: printed as DCQWHLGELVWCT-(βA)(βA))
0 | 0 | 0 | 11I: cellulose-bound 13-mer variant DCAWHLGELVICT-(βA)(βA)
0 | 0 | + | 01M: cellulose-bound 13-mer variant MCAWHLGELVWCT-(βA)(βA) (MCAWHLGELVWCT-{βAla-βAla-cellulose}; disulfide 2-12 (inferred); reading uncertain; also: printed as MCAWHLGELVWCT-(βA)(βA))
0 | 0 | + | 01K: cellulose-bound 13-mer variant KCAWHLGELVWCT-(βA)(βA) (KCAWHLGELVWCT-{βAla-βAla-cellulose}; disulfide 2-12 (inferred); reading uncertain; also: printed as KCAWHLGELVWCT-(βA)(βA))
0 | 0 | + | 01Q: cellulose-bound 13-mer variant QCAWHLGELVWCT-(βA)(βA) (QCAWHLGELVWCT-{βAla-βAla-cellulose}; disulfide 2-12 (inferred); reading uncertain; also: printed as QCAWHLGELVWCT-(βA)(βA))
0 | 0 | 0 | 05E: cellulose-bound 13-mer variant DCAWELGELVWCT-(βA)(βA) (disulfide 2-12 (inferred); not fully specified (N-terminus, C-terminus); printed as DCAWELGELVWCT-(βA)(βA); also: cellulose-bound)
0 | 0 | 0 | 10R: cellulose-bound 13-mer variant DCAWHLGELRWCT-(βA)(βA) (DCAWHLGELRWCT-{βAla-βAla-cellulose}; disulfide 2-12 (inferred); reading uncertain; also: printed as DCAWHLGELRWCT-(βA)(βA))
+ | 0 | + | 06G: cellulose-bound 13-mer variant DCAWHGGELVWCT-(βA)(βA) (DCAWHGGELVWCT[βAla][βAla]; disulfide 2-12 (inferred); not fully specified (N-terminus); printed as DCAWHGGELVWCT-(βA)(βA); also: cellulose-bound)
